This note sets out measurements from US12479830B2, “Homopiperazinyl and homopiperidinyl quinazolin-4(3H)-one derivatives having multimodal activity against pain” (ESTEVE PHARMACEUTICALS, S.A., priority 2019, dated 2025).

The structures appear in SMILES notation.

For test [1], the target named is Human α2δ-1 subunit of Cav2.2 calcium channel (Homo sapiens, UniProt P54289). Put plainly: Human α2δ-1 subunit of Cav2.2 calcium channel assay ([3H]-gabapentin binding). The conditions noted are these: binding to the α2δ-1 subunit of voltage-gated calcium channels, expressed as Ki class; + also covers inhibition between 1% and 50%. In a few lines: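 Human α2δ-1 enriched membranes (2.5 μg) incubated 60 min at 27° C. with 15 nM [3H]-gabapentin in 10 mM Hepes-KOH pH 7.4; non-specific binding with 10 μM pregabalin. Filtration binding; % inhibition at 1 or 10 μM, or Ki from five concentrations.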
Human α2δ-1 subunit of Cav2.2 calcium channel, sequence (P54289 25-1103): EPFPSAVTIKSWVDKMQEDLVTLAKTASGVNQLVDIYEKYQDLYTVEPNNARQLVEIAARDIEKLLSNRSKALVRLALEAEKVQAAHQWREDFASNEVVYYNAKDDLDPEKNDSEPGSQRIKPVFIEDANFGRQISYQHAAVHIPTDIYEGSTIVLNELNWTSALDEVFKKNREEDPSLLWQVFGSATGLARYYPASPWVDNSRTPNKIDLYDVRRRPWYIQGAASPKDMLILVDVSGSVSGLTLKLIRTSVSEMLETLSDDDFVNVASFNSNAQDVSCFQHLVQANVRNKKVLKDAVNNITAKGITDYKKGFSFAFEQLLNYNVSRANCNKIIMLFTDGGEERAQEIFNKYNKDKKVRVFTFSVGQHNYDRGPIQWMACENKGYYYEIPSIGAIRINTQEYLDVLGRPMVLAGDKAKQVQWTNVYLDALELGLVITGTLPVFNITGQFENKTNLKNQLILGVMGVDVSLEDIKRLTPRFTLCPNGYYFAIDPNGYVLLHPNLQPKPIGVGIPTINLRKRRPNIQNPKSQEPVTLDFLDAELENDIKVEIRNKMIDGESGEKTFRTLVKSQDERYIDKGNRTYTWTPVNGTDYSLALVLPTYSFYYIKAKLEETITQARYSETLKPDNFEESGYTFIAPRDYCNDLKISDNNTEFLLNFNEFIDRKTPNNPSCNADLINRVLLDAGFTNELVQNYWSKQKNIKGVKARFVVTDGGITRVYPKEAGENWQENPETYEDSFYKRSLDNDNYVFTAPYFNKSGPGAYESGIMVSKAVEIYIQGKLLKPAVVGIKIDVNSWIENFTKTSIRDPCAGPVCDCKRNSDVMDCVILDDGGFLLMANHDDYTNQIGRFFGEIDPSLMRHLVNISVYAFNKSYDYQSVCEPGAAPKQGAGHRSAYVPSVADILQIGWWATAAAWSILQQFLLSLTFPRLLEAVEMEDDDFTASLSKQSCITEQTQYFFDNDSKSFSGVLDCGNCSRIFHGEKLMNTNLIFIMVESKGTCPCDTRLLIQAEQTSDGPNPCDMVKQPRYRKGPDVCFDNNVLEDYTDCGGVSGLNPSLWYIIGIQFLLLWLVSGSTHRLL

The target of the next test is T1, Human σ1 receptor (Homo sapiens, UniProt Q99720).
T1 construct: expressed in transfected cells; host or cells: HEK-293
T1 sequence (Q99720 whole entry): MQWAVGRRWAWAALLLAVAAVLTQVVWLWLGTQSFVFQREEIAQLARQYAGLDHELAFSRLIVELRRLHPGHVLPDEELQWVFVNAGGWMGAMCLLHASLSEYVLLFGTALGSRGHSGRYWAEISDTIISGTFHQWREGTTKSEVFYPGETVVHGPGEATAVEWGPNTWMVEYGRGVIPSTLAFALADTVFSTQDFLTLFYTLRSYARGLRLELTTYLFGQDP
Nature of the test: Human σ1 receptor radioligand assay ([3H](+)-pentazocine binding). To be noted: binding to the σ1 receptor, expressed as Ki class; + also covers inhibition between 1% and 50%. In a few lines: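 Membranes (7 μg) were incubated with 5 nM [3H](+)-pentazocine in 50 mM Tris-HCl pH 8 for 120 min at 37° C. Non-specific binding was defined with 10 μM haloperidol. Values are % inhibition at 1 or 10 μM or Ki from five concentrations, read by filtration and scintillation counting.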

`CCCC(c1nc2ccc(I)cc2c(=O)n1CC)N1CCCN(C)CC1` (stereo not drawn) [Example 12, 3-ethyl-6-iodo-2-(1-(4-methyl-1,4-diazepan-1-yl)butyl)quinazolin-4(3H)-one]: the Ki (in test [1]; at Human σ1 receptor) was under 0.5 µM each time.

As to `CCCC(c1nc2cc(F)c(Br)cc2c(=O)n1CC)N1CCCNCC1` (stereo not drawn) [Example 27, 2-(1-(1,4-diazepan-1-yl)butyl)-6-bromo-3-ethyl-7-fluoroquinazolin-4(3H)-one], the Ki (as a rule, a dissociation constant, usually derived from enzyme kinetics or from competition with a known ligand) in test [1] was under 0.5 µM; at Human σ1 receptor it was over 1 µM.

`CCC[C@@H](c1nc2ccc(Cl)cc2c(=O)n1CC)N1CCN(C)C[C@H](C)C1` [Example 73, 6-chloro-2-((S)-1-((S)-4,6-dimethyl-1,4-diazepan-1-yl)butyl)-3-ethylquinazolin-4(3H)-one]: the inhibition constant (Ki) is over 5 µM in test [1] and over 1 µM on Human σ1 receptor.

On to `CCCC(c1nc2ncc(F)cc2c(=O)n1CC1CC1)N1CCN[C@@H](C)CC1` (single isomer, unassigned) [Example 194], for which the Ki in test [1] is over 5 µM; at Human σ1 receptor, over 1 µM.

With `CCC[C@@H](c1nc2ccc(Cl)cc2c(=O)n1CC)N1CCN(C)C[C@@H](C)C1` [Example 74, 6-chloro-2-((S)-1-((R)-4,6-dimethyl-1,4-diazepan-1-yl)butyl)-3-ethylquinazolin-4(3H)-one], the Ki in test [1] was over 5 µM; at Human σ1 receptor it was over 1 µM.

For `CCC[C@H](c1nc2cc(F)c(Br)cc2c(=O)n1CC)N1CCN(C)C[C@@H](C)C1` [Example 130, 6-bromo-2-((R)-1-((R)-4,6-dimethyl-1,4-diazepan-1-yl)butyl)-3-ethyl-7-fluoroquinazolin-4 (3H)-one], the Ki is under 0.5 µM in test [1] and 0.5 to 1 µM at Human σ1 receptor.

Regarding `CCC[C@H](c1nc2c(F)cccc2c(=O)n1CC)N1CCCN(C)CC1` [Example 248, (R)-3-ethyl-8-fluoro-2-(1-(4-methyl-1,4-diazepan-1-yl)butyl)quinazolin-4(3H)-one], the Ki in test [1] is under 0.5 µM; on Human σ1 receptor, over 1 µM.

Regarding `CCC[C@H](c1nc2ccc(Cl)cc2c(=O)n1CC)N1CCN(C)C[C@@H](C)C1` [Example 76, 6-chloro-2-((R)-1-((R)-4,6-dimethyl-1,4-diazepan-1-yl)butyl)-3-ethylquinazolin-4(3H)-one], the Ki in test [1] was under 0.5 µM; at Human σ1 receptor, 0.5 to 1 µM.

In the case of `CCCC(c1nc2ccc(C)cc2c(=O)n1CC)N1CCCN(C)CC1` (stereo not drawn) [Example 8, 3-ethyl-6-methyl-2-(1-(4-methyl-1,4-diazepan-1-yl)butyl)quinazolin-4(3H)-one], the inhibition constant Ki in test [1] was under 0.5 µM; on Human σ1 receptor it was over 1 µM.

Turning to `CCC[C@H](c1nc2ccc(C(F)(F)F)cc2c(=O)n1CC)N1CCCN(C)CC1` [Example 252, (R)-3-ethyl-2-(1-(4-methyl-1,4-diazepan-1-yl)butyl)-6-(trifluoromethyl)quinazolin-4(3H)-one], the Ki (in test [1]; at Human σ1 receptor) was under 0.5 µM throughout.

As for `CCC[C@@H](c1nc2ccc(OC)cc2c(=O)n1CC)N1CCCN(C)CC1` [Example 16, (S)-3-ethyl-6-methoxy-2-(1-(4-methyl-1,4-diazepan-1-yl)butyl)quinazolin-4(3H)-one], the inhibition constant (Ki) in test [1] is over 5 µM; at Human σ1 receptor, over 1 µM.

Consider `CCC[C@H](c1nc2cc(F)c(OC)cc2c(=O)n1CC)N1CCNC[C@@H](C)C1` [Example 243, 3-ethyl-7-fluroo-6-methoxy-2-((R)-1-((R)-6-methyl-1,4-diazepan-1-yl)butyl)quinazolin-4(3H)-one], for which the results for the Ki (in test [1]; at Human σ1 receptor) were under 0.5 µM and over 1 µM, respectively.

For `CCCC(c1nc2cnccc2c(=O)n1CC)N1CCCN(C)CC1` (stereo not drawn) [Example 17, 3-ethyl-2-(1-(4-methyl-1,4-diazepan-1-yl)butyl)pyrido[3,4-d]pyrimidin-4(3H)-one], the results for the Ki (in test [1]; on Human σ1 receptor) were under 0.5 µM and over 1 µM, respectively.

Consider `CCC[C@H](c1nc2ccc(Br)cc2c(=O)n1CC)N1CCN(C)C[C@@H](C)C1` [Example 35, 6-bromo-2-((R)-1-((R)-4,6-dimethyl-1,4-diazepan-1-yl)butyl)-3-ethylquinazolin-4(3H)-one], for which the inhibitory constant (Ki) in test [1] was under 0.5 µM; at Human σ1 receptor, over 1 µM.

As for `CCC[C@@H](c1nc2cc(F)c(Br)cc2c(=O)n1CC)N1CCN(C)C[C@H](C)C1` [Example 128, 6-bromo-2-((S)-1-((S)-4,6-dimethyl-1,4-diazepan-1-yl)butyl)-3-ethyl-7-fluoroquinazolin-4(3H)-one], the Ki in test [1] was over 5 µM; on Human σ1 receptor it was over 1 µM.

With `CCC[C@@H](c1nc2cc(F)c(Br)cc2c(=O)n1CC)N1CCN(C)C[C@@H](C)C1` [Example 129, 6-bromo-2-((S)-1-((R)-4,6-dimethyl-1,4-diazepan-1-yl)butyl)-3-ethyl-7-fluoroquinazolin-4(3H)-one], the results for the Ki (in test [1]; on Human σ1 receptor) were 0.5 to 5 µM and over 1 µM, respectively.

Take `CCC[C@H](c1nc2ccc(OC(F)(F)F)cc2c(=O)n1CC)N1CCCN(C)CC1` [Example 249, (R)-3-ethyl-2-(1-(4-methyl-1,4-diazepan-1-yl)butyl)-6-(trifluoromethoxy)quinazolin-4(3H)-one]: the figures for the Ki (in test [1]; on Human σ1 receptor) were under 0.5 µM and 0.5 to 1 µM, respectively.

On to `CCC[C@H](c1nc2ccncc2c(=O)n1CC)N1CCNC[C@@H](C)C1` [Example 165, 3-ethyl-2-((R)-1-((R)-6-methyl-1,4-diazepan-1-yl)butyl)pyrido[4,3-d]pyrimidin-4(3H)-one], for which the results for the Ki (in test [1]; on Human σ1 receptor) were under 0.5 µM and over 1 µM, respectively.

Take `CCC[C@@H](c1nc2ncc(F)cc2c(=O)n1CC1CC1)N1CCN[C@H](C)CC1` [Example 193, 3-(cyclopropylmethyl)-6-fluoro-2-((S)-1-((R)-5-methyl-1,4-diazepan-1-yl)butyl)pyrido[2,3-d]pyrimidin-4(3H)-one]: the inhibition constant Ki in test [1] was over 5 µM; on Human σ1 receptor, over 1 µM.

Consider `CCC[C@@H](c1nc2ccc(Br)cc2c(=O)n1CC)N1CCN(C)C[C@H](CO)C1` [Example 126, 6-bromo-3-ethyl-2-((S)-1-((S)-6-(hydroxymethyl)-4-methyl-1,4-diazepan-1-yl)butyl)quinazolin-4(3H)-one], for which the results for the Ki (in test [1]; at Human σ1 receptor) were 0.5 to 5 µM and 0.5 to 1 µM, respectively.

For the molecule `CCC[C@@H](c1nc2ccc(Br)cc2c(=O)n1CC)N1CCCN[C@@H](C)C1` [Example 140, 6-bromo-3-ethyl-2-((S)-1-((S)-3-methyl-1,4-diazepan-1-yl)butyl)quinazolin-4(3H)-one], the Ki in test [1] was over 5 µM; at Human σ1 receptor, over 1 µM.

As for `CCCC(c1nc2cc(C)ccc2c(=O)n1CC)N1CCCN(C)CC1` (stereo not drawn) [Example 11, 3-ethyl-7-methyl-2-(1-(4-methyl-1,4-diazepan-1-yl)butyl)quinazolin-4(3H)-one], the Ki is under 0.5 µM in test [1] and over 1 µM at Human σ1 receptor.

Consider `CCC[C@H](c1nc2ccncc2c(=O)n1CC)N1CCNC[C@H](C)C1` [Example 164, 3-ethyl-2-((R)-1-((S)-6-methyl-1,4-diazepan-1-yl)butyl)pyrido[4,3-d]pyrimidin-4(3H)-one], for which the Ki in test [1] is under 0.5 µM; at Human σ1 receptor, over 1 µM.

On to `CCC[C@H](c1nc2cc(F)c(Br)cc2c(=O)n1CC)N1CCN(C)C[C@H](C)C1` [Example 127, 6-Bromo-2-((R)-1-((S)-4,6-dimethyl-1,4-diazepan-1-yl)butyl)-3-ethyl-7-fluoroquinazolin-4(3H)-one], for which the Ki in test [1] is under 0.5 µM; on Human σ1 receptor it was 0.5 to 1 µM.
